Measured values from ChEMBL document CHEMBL1811879, “Fragmental modeling of hPepT2 and analysis of its binding features by docking studies and pharmacophore mapping” (Bioorg Med Chem, 2011).
Where a SMILES comes first, the peptide text is derived from it. [ ]: non-standard residue; d: D form. Nle = CCCC[C@H](N)C(=O)O

Molecular target: T1, Solute carrier family 15 member 2 (Homo sapiens, UniProt Q16348)
T1 sequence (Q16348 whole entry): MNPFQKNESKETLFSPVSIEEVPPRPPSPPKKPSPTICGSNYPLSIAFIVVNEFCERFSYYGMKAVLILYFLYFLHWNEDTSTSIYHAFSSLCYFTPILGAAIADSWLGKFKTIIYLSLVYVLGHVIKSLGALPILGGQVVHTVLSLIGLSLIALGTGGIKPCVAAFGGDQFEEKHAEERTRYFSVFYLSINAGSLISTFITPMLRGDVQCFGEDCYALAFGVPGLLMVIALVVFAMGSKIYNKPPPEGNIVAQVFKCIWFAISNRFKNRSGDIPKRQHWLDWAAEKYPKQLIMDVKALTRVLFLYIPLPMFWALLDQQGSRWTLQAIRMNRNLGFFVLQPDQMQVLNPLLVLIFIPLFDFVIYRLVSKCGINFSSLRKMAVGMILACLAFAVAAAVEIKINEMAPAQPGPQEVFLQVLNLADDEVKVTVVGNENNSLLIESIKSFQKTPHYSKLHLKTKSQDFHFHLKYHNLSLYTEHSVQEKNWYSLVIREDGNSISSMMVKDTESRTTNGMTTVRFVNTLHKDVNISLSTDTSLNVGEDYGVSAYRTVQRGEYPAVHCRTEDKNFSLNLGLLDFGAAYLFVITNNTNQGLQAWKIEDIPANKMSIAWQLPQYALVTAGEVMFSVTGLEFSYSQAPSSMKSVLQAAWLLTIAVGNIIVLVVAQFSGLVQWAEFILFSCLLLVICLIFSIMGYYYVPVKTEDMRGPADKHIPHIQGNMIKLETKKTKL
Experiment: Binding affinity to human PepT2 in SKTP cells
Assay type: ADME, cell-based

Ki	Compound
11000 µM	CO/N=C(\C(=O)N[C@@H]1C(=O)N2C(C(=O)[O-])=C(C[N+]3(C)CCCC3)CS[C@H]12)c1csc(N)n1
18 µM	C[C@H](N)C(=O)N[C@@H](C)C(=O)N[C@@H](C)C(=O)O
4.4 µM	C[C@H](NC(=O)[C@@H](N)Cc1ccc(O)cc1)C(=O)O
1.7 µM	N[C@@H](Cc1c[nH]c2ccccc12)C(=O)NCC(=O)N[C@@H](Cc1ccc(O)cc1)C(=O)O
29 µM	N[C@@H](CS)C(=O)NCC(=O)O
16 µM	CC(=O)N[C@@H](CCCCN)C(=O)N[C@@H](C)C(=O)O (Ac-Lys-Ala-OH)
550 µM	C[C@H](N)C(=O)N[C@H](C(=O)N[C@@H](C)C(=O)N[C@@H](C)C(=O)O)[C@@H](C)O (H-ATAA-OH)
160 µM	C[C@H](N)C(=O)N[C@@H](C)C(=O)N[C@@H](CC(=O)O)C(=O)O (H-Ala-Ala-Asp-OH)
7 µM	C[C@H](N)C(=O)NCC(=O)O (H-Ala-Gly-OH)
23 µM	C[C@H](N)C(=O)N[C@@H](CCCCN)C(=O)O (H-Ala-Lys-OH)
12 µM	C[C@H](N)C(=O)N1CCC[C@H]1C(=O)O (H-Ala-Pro-OH)
6 µM	C[C@H](N)C(=O)N[C@@H](CO)C(=O)O (H-Ala-Ser-OH)
31 µM	CCCC[C@H](NC(=O)[C@H](C)N)C(=O)O (H-Ala-[Nle]-OH)
270 µM	C[C@H](N)C(=O)N[C@H](C)C(=O)O (H-Ala-[dA]-OH)
150 µM	N[C@@H](CC(=O)O)C(=O)N[C@@H](CC(=O)O)C(=O)O (H-Asp-Asp-OH)
3.5 µM	C[C@H](NC(=O)CN)C(=O)O (H-Gly-Ala-OH)
54 µM	NCC(=O)NCC(=O)O (H-Gly-Gly-OH)
3100 µM	NCCCC[C@H](NC(=O)[C@H](Cc1cnc[nH]1)NC(=O)CN)C(=O)O (H-Gly-His-Lys-OH)
39 µM	NCC(=O)N[C@@H](Cc1c[nH]cn1)C(=O)O (H-Gly-His-OH)

Ki	Compound
8 µM	CC[C@H](C)[C@H](N)C(=O)N[C@@H](Cc1ccc(O)cc1)C(=O)O (H-Ile-Tyr-OH)
14 µM	CC[C@H](C)[C@H](N)C(=O)N[C@H](C(=O)N[C@@H](Cc1ccc(O)cc1)C(=O)O)C(C)C (H-Ile-Val-Tyr-OH)
18 µM	CC(C)C[C@H](N)C(=O)NCC(=O)NCC(=O)O (H-Leu-Gly-Gly-OH)
10 µM	CC(C)C[C@H](N)C(=O)N1CCC[C@H]1C(=O)O (H-Leu-Pro-OH)
41 µM	C[C@H](NC(=O)[C@@H](N)CCCCN)C(=O)O (H-Lys-Ala-OH)
3 µM	CSCC[C@H](NC(=O)[C@@H](N)CCSC)C(=O)O (H-Met-Met-OH)
14 µM	N[C@@H](Cc1ccccc1)C(=O)NCC(=O)O (H-Phe-Gly-OH)
37 µM	N[C@@H](Cc1ccccc1)C(=O)N[C@@H](Cc1ccccc1)C(=O)O (H-Phe-Phe-OH)
2100 µM	O=C(O)C[C@H](NC(=O)[C@@H]1CCCN1)C(=O)O (H-Pro-Asp-OH)
2600 µM	O=C(O)CC[C@H](NC(=O)[C@@H]1CCCN1)C(=O)O (H-Pro-Glu-OH)
900 µM	NCCCC[C@H](NC(=O)[C@H](Cc1ccccc1)NC(=O)[C@@H]1CCCN1)C(=O)O (H-Pro-Phe-Lys-OH)
7 µM	C[C@H](NC(=O)[C@@H](N)CO)C(=O)O (H-Ser-Ala-OH)
4 µM	C[C@H](NC(=O)[C@@H](N)Cc1c[nH]c2ccccc12)C(=O)O (H-Trp-Ala-OH)
0.8 µM	N[C@@H](Cc1c[nH]c2ccccc12)C(=O)N[C@@H](Cc1c[nH]c2ccccc12)C(=O)O (H-Trp-Trp-OH)
0.3 µM	N[C@@H](Cc1c[nH]c2ccccc12)C(=O)N[C@@H](Cc1c[nH]c2ccccc12)C(=O)N[C@@H](Cc1c[nH]c2ccccc12)C(=O)O (H-Trp-Trp-Trp-OH)
9 µM	N[C@@H](Cc1ccc(O)cc1)C(=O)N[C@@H](Cc1ccccc1)C(=O)O (H-Tyr-Phe-OH)
39 µM	CC(C)[C@H](N)C(=O)N1CCC[C@H]1C(=O)O (H-Val-Pro-OH)
2.5 µM	CC(C)[C@H](N)C(=O)N[C@@H](Cc1ccc(O)cc1)C(=O)O (H-Val-Tyr-OH)
130 µM	C[C@H](NC(=O)[C@@H](C)N)C(=O)O (H-[dA]-Ala-OH)

Ki	Compound
430 µM	CC1(C)S[C@@H]2[C@H](NC(=O)[C@H](N)c3ccc(O)cc3)C(=O)N2[C@H]1C(=O)O [AMOXICILLIN]
3 µM	CC1=C(C(=O)O)N2C(=O)[C@@H](NC(=O)[C@H](N)c3ccc(O)cc3)[C@H]2SC1 [CEFADROXIL]
2800 µM	Cn1nnnc1SCC1=C(C(=O)O)N2C(=O)[C@@H](NC(=O)[C@H](O)c3ccccc3)[C@H]2SC1 [CEFAMANDOLE]
2600 µM	C=CC1=C(C(=O)O)N2C(=O)[C@@H](NC(=O)/C(=N\OCC(=O)O)c3csc(N)n3)[C@H]2SC1 [CEFIXIME]
4300 µM	CO[C@@]1(NC(=O)CSCC#N)C(=O)N2C(C(=O)O)=C(CSc3nnnn3C)CS[C@@H]21 [CEFMETAZOLE]
9000 µM	CO/N=C(\C(=O)N[C@@H]1C(=O)N2C(C(=O)O)=C(CSc3nc(C)c(CC(=O)O)s3)CS[C@H]12)c1csc(N)n1 [CEFODIZIME]
20000 µM	CO/N=C(\C(=O)N[C@@H]1C(=O)N2C(C(=O)O)=C(COC(C)=O)CS[C@H]12)c1csc(N)n1 [CEFOTAXIME]
12600 µM	CO/N=C(\C(=O)N[C@@H]1C(=O)N2C(C(=O)O)=C(COC(N)=O)CS[C@H]12)c1ccco1 [CEFUROXIME]
75 µM	CC1=C(C(=O)O)N2C(=O)[C@@H](NC(=O)[C@H](N)c3ccccc3)[C@H]2SC1 [CEPHALEXIN ANHYDROUS]
8500 µM	O=C(Cc1cccs1)N[C@@H]1C(=O)N2C(C(=O)[O-])=C(C[n+]3ccccc3)CS[C@H]12 [CEPHALORIDINE]
8300 µM	CC(=O)OCC1=C(C(=O)O)N2C(=O)[C@@H](NC(=O)Cc3cccs3)[C@H]2SC1 [CEPHALOTHIN]
11100 µM	CC(=O)OCC1=C(C(=O)O)N2C(=O)[C@@H](NC(=O)CSc3ccncc3)[C@H]2SC1 [CEPHAPIRIN SODIUM]
950 µM	Cc1onc(-c2ccccc2Cl)c1C(=O)N[C@@H]1C(=O)N2[C@@H]1SC(C)(C)[C@@H]2C(=O)O [CLOXACILLIN]
44 µM	CC1(C)S[C@@H]2[C@H](NC(=O)C3(N)CCCCC3)C(=O)N2[C@H]1C(=O)O [CYCLACILLIN]
420 µM	Cc1onc(-c2c(Cl)cccc2Cl)c1C(=O)N[C@@H]1C(=O)N2[C@@H]1SC(C)(C)[C@@H]2C(=O)O [DICLOXACILLIN]
230 µM	CC(=O)CCC(=O)O [LEVULINIC ACID]
730 µM	C=N[C@@H](C(=O)N[C@@H]1C(=O)N2[C@@H]1SC(C)(C)[C@@H]2C(=O)O)c1ccccc1 [METAMPICILLIN]
190 µM	H-AATAA-OH
240 µM	H-FATAA-OH

Compound	Ki
COCC1=C(C(=O)O)N2C(=O)[C@@H](NC(=O)/C(=N\OC)c3csc(N)n3)[C@H]2SC1 [CEFPODOXIME]	31000 µM
Cc1onc(-c2ccccc2)c1C(=O)N[C@@H]1C(=O)N2[C@@H]1SC(C)(C)[C@@H]2C(=O)O [OXACILLIN]	3300 µM
